In the supplement of paper PMC10307832:

How the values were obtained:
Experiment in all cases: relative viability (nuclei count vs DMSO), 5 days (fraction); higher = more cells survive
[1] = compound: Cc1nc(NC(=O)N2CCC[C@H]2C(N)=O)sc1-c1ccnc(C(C)(C)C(F)(F)F)c1 [Alpelisib] + NC(=O)Nc1cc(-c2cccc(F)c2)sc1C(=O)N[C@H]1CCCNC1 [AZD7762] (partner 0.2 µM)
Procedure, shortened: (§1)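 Nuclei were stained with Hoechst during a one-step fixation (final 0.05% Triton X-100, 1% formaldehyde, 1 ug/ml Hoechst) carried out 5 days after dosing, then counted on 4× images. The cells, lung cancer lines in 1536-well plates, had been dosed by pin tool the day after seeding with one drug alone or a fixed anchor-drug dose plus five library-drug doses (not always all listed) in √10 steps. Relative viability is the nuclei count in treated wells divided by that in vehicle wells, and each value is the median of duplicate plates.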

[2] = compound: CCCS(=O)(=O)Nc1ccc(F)c(C(=O)c2c[nH]c3ncc(-c4ccc(Cl)cc4)cc23)c1F [Vemurafenib] + CS(=O)(=O)CCNCc1ccc(-c2ccc3ncnc(Nc4ccc(OCc5cccc(F)c5)c(Cl)c4)c3c2)o1 [Lapatinib] (partner 2 µM)
Procedure, shortened: as §1

[3] = compound: COc1cccc2cc(-c3nc([C@H]4CC[C@H](C(=O)O)CC4)n4ncnc(N)c34)[nH]c12 [OSI-027] + Cc1cc(Nc2cc(N3CCN(C)CC3)nc(Sc3ccc(NC(=O)C4CC4)cc3)n2)n[nH]1 [Tozasertib] (partner 0.1 µM)
Procedure, shortened: as §1

[4] = compound: CCCS(=O)(=O)Nc1ccc(F)c(C(=O)c2c[nH]c3ncc(-c4ccc(Cl)cc4)cc23)c1F [Vemurafenib] + Cc1nc(NC(=O)N2CCC[C@H]2C(N)=O)sc1-c1ccnc(C(C)(C)C(F)(F)F)c1 [Alpelisib] (partner 2 µM)
Procedure, shortened: as §1

Row | Cell Line | relative viability ([1]; first compound 0.04 µM) | relative viability ([1]; first compound 0.1265 µM) | relative viability ([1]; first compound 0.4 µM) | relative viability ([1]; first compound 1.265 µM) | relative viability ([1]; first compound 4 µM) | relative viability ([2]; first compound 0.03162 µM) | relative viability ([2]; first compound 0.3162 µM) | relative viability ([2]; first compound 1 µM) | relative viability ([3]; first compound 0.01 µM) | relative viability ([3]; first compound 0.03162 µM) | relative viability ([3]; first compound 0.1 µM) | relative viability ([3]; first compound 0.3162 µM) | relative viability ([3]; first compound 1 µM) | relative viability ([4]; first compound 0.03162 µM) | relative viability ([4]; first compound 0.3162 µM) | relative viability ([4]; first compound 1 µM) | relative viability ([2]; first compound 0.1 µM) | relative viability ([4]; first compound 0.1 µM)
1 | EKVX | 0.868 | 0.662 | 0.675 | 0.636 | 0.533 | 0.189 | 0.253 | 0.208 | 0.299 | 0.358 | 0.406 | 0.349 | 0.269 | 0.821 | 0.904 | 0.777 | – | –
2 | HCC-78 | 0.726 | 0.515 | 0.293 | 0.362 | 0.377 | 0.725 | 0.982 | 0.386 | 0.506 | 0.374 | 0.435 | 0.334 | 0.241 | 0.351 | 0.663 | 0.361 | 0.832 | 0.249
3 | NCI-H2126 | 0.998 | 1.01 | 0.945 | 0.904 | 0.769 | 0.753 | 0.862 | 0.731 | 0.811 | 0.848 | 0.725 | 0.745 | 0.538 | 0.718 | 0.758 | 0.789 | 0.783 | 0.709
4 | HCC-827 | 0.253 | 0.212 | 0.209 | 0.199 | 0.168 | 0.209 | 0.22 | 0.191 | 0.447 | 0.478 | 0.456 | 0.343 | 0.363 | 0.959 | 1.01 | 0.9 | – | –
5 | LK-2 | 0.402 | 0.253 | 0.442 | 0.209 | 0.123 | 0.674 | 0.835 | 0.505 | 0.186 | 0.188 | 0.144 | 0.162 | 0.145 | 1.07 | 1.22 | 0.706 | 0.867 | 1.07
6 | PC-14 | 0.324 | 0.236 | 0.448 | 0.307 | 0.35 | 0.255 | 0.287 | 0.362 | 0.564 | 0.577 | 0.598 | 0.636 | 0.505 | 0.881 | 0.907 | 0.903 | – | –
7 | NCI-H1355 | 0.792 | 0.78 | 0.704 | 0.636 | 0.553 | 0.962 | 0.837 | 1.08 | 0.546 | 0.492 | 0.541 | 0.461 | 0.361 | 0.823 | 0.797 | 0.88 | 0.956 | 0.689
8 | LXF-289 | 1.05 | 1.1 | 1.21 | 1.18 | 1.27 | 0.892 | 0.87 | 0.965 | 0.17 | 0.209 | 0.201 | 0.195 | 0.133 | 1.02 | 1.05 | 1.03 | 0.883 | 1.02
9 | LOU-NH91 | 0.735 | 0.608 | 0.663 | 0.556 | 0.543 | 0.683 | – | 0.781 | 0.656 | 0.617 | 0.571 | 0.658 | 0.484 | 0.713 | – | 0.734 | 0.78 | 0.487
10 | NCI-H2170 | 0.865 | 0.712 | 0.891 | 0.632 | 0.481 | 0.277 | 0.266 | 0.267 | 0.71 | 0.658 | 0.603 | 0.733 | 0.435 | 0.735 | 0.692 | 0.712 | 0.244 | 0.301
11 | NCI-H2405 | 0.763 | 0.728 | 0.686 | 0.446 | 0.428 | 0.935 | – | 1.1 | 0.754 | 0.715 | 0.76 | 0.79 | 0.467 | 0.708 | – | 0.785 | 0.986 | 0.675
12 | NCI-H322M | 0.594 | 0.556 | 0.47 | 0.424 | 0.458 | 0.583 | 0.801 | 0.491 | 0.488 | 0.485 | 0.413 | 0.397 | 0.307 | 0.845 | 0.872 | 0.707 | – | –
13 | NCI-H23 | 0.23 | 0.211 | 0.396 | 0.154 | 0.224 | 0.87 | 0.749 | 1.36 | 0.636 | 0.269 | 0.34 | 0.413 | 0.306 | 0.626 | 0.912 | 0.664 | 1.16 | 0.642
14 | HCC-15 | 1.23 | 1.35 | 1.32 | 1.05 | 0.908 | 0.786 | 0.613 | 0.773 | 0.458 | 0.4 | 0.429 | 0.414 | 0.266 | 0.864 | 0.874 | 0.881 | 0.849 | 0.892
15 | NCI-H1437 | 1.12 | 1.18 | 1.12 | 1.02 | 1.06 | 0.748 | 0.698 | 0.876 | 0.418 | 0.379 | 0.456 | 0.413 | 0.318 | 0.915 | 0.842 | 0.901 | 0.793 | 0.96
16 | A-427 | 0.712 | 0.649 | 0.72 | 0.574 | 0.617 | 0.907 | 0.973 | 1.04 | 0.231 | 0.201 | 0.159 | 0.219 | 0.192 | 1.02 | 1.11 | 1.14 | 1.07 | 1.09
17 | NCI-H1975 | 0.731 | 0.621 | 0.731 | 0.463 | 0.374 | 0.806 | 0.709 | 0.919 | 1 | 0.778 | 0.746 | 0.66 | 0.478 | 0.582 | 0.526 | 0.629 | 0.983 | 0.608
18 | NCI-H1755 | 0.378 | 0.544 | 0.465 | 0.326 | 0.362 | 0.925 | 0.777 | 0.988 | 0.532 | 0.559 | 0.524 | 0.484 | 0.409 | 0.906 | 0.869 | 0.791 | 1.02 | 0.83
